Test system: NSC-34 cells
Test: NSC-34 cell differentiation into mature motor neurons
Format: cell-based

Compound: CC1=C(/C=C/C(C)=C/C=C/C(C)=C/C(=O)O)C(C)(C)CCC1 [RA, retinoic acid]
- time to NSC-34 cell differentiation (1 μM RA): 14 days
- time to NSC-34 cell differentiation (10 μM RA): 7 days

Source: patent US20250161395A1, “SPINAL CORD REGENERATION THERAPY” (MOLEAC PTE LTD., priority 2022, published 2025)
